test system: LPS induced TNF release; assay: Lipopolysaccharide-Activated THP1 Cell TNF Production Assay; format: cell-based; conditions: Homo sapiens, THP-1
Protocol: Lipopolysaccharide-Activated THP1 Cell TNF Production Assay
THP1 cells are resuspended in fresh THP1 media (RPMI 1640, 10% heat-inactivated FBS, 1×PGS, 1×NEAA, plus 30 μM βME) at a concentration of 1E6/mL. One hundred microliters of cells per well are plated in a polystyrene 96-well tissue culture. One microgram per mL of bacterial LPS is prepared in THP1 media and is transferred to the wells. Test compounds are dissolved in 100% DMSO and are serially diluted 3 fold in a polypropylene 96-well microtiter plate (drug plate). HI control and LO control wells contain only DMSO. One microliter of test compound from the drug plate followed by 10 μL of LPS are transferred to the cell plate. The treated cells are induced to synthesize and secrete TNF-α at 37° C. for 3 h. Forty microliters of conditioned media are transferred to a 96-well polypropylene plate containing 110 μL of ECL buffer (50 mM Tris-HCl pH 8.0, 100 mM NaCl, 0.05% Tween 20, 0.05% NaN3 and 1%FBS) supplemented with 0.44 nM MAB610 monoclonal Ab (R&D Systems), 0.34 nM ruthenylated AF210NA polyclonal Ab (R&D Systems) and 44 μg/mL sheep anti-mouse M280 Dynabeads (Dynal). After a 2 h incubation at room temperature with shaking, the reaction is read on the ECL M8 Instrument (IGEN Inc.). A low voltage is applied to the ruthenylated TNF-α immune complexes, which in the presence of TPA (the active component in Origlo), results in a cyclical redox reaction generating light at […]. The amount of secreted TNF-α in the presence of compound compared with that in the presence of DMSO vehicle alone (HI control) is calculated using the formula: % control (POC)=(cpd−average LO)/(average HI−average LO)*100. Data (consisting of POC and inhibitor concentration in μM) is fitted to a 4-parameter equation (y=A+((B−A)/(1+((x/C)^D))), where A is the minimum y (POC) value, B is the maximum y (POC), C is the x (cpd concentration) at the point of inflection and D is the slope factor) using a Levenburg-Marquardt non-linear regression algorithm.

| SMILES | IC50 [µM] |
| --- | --- |
| CC(C)NC(C)c1ccc(CCNc2nccc(N3CCC(=O)N4CC=C(c5ccccc5)N=C43)n2)cc1 (stereo not drawn) [Example 62, 1-(2-{2[4-(1-Isopropylamino-ethyl)-phenyl]-ethylamino}-pyrimidin-4-yl)-8-phenyl-1,2,3,6-tetrahydro-pyrimido[1,2-a]pyrimidin-4-one] | ≤ 20 |
| NCCC1CN(c2ccnc(NCCc3ccccc3)n2)c2nc(-c3ccccc3)cc(=O)n2C1 (stereo not drawn) [Example 51, 7-(2-Amino-ethyl)-9-(2-phenethylamino-pyrimidin-4-yl)-2-phenyl-6,7,8,9-tetrahydro-pyrimido[1,2-a]pyrimidin-4-one] | ≤ 20 |
| C[C@H](Nc1nccc(N2CCCn3c2nc(-c2ccccc2C(F)(F)F)cc3=O)n1)c1ccccc1 [Example 3, 2-(2-trifluoromethylphenyl)-9-[2-(1(S)-phenyl-ethylamino) -pyrimidin-4-yl]-6,7,8,9-tetrahydro-pyrimido[1,2-a]pyrimidin-4-one] | ≤ 20 |
| CC(C)NCCC1CN(c2ccnc(NCCc3ccccc3)n2)c2nc(-c3ccccc3)cc(=O)n2C1 (stereo not drawn) [Example 50, 7-(2-Isopropylamino-ethyl)-9-(2-phenethylamino-pyrimidin-4-yl) -2-phenyl-6,7,8,9-tetrahydro-pyrimido[1,2-a]pyrimidin-4-one] | ≤ 20 |
| C[C@H](Nc1nccc(N2CCCn3c2nc(-c2ccc(F)cc2)cc3=O)n1)c1ccccc1 [Example 4, 2-(4-fluorophenyl)-9-[2-(1(S)-phenyl-ethylamino)-pyrimidin-4-yl]-6,7,8,9-tetrahydro-pyrimido[1,2-a]pyrimidin-4-one] | ≤ 20 |
| Cc1ccc(-c2cc(=O)n3c(n2)N(c2ccnc(N[C@@H](C)c4ccccc4)n2)CCC3)cc1C [Example 1, 2-(3,4-Dimethyl-phenyl)-9-[2-(1(S)-phenyl-ethylamino) -pyrimidin-4-yl]-6,7,8,9-tetrahydro-pyrimido[1,2-a]pyrimidin-4-one] | ≤ 20 |
| O=C(O)CCC1CN(c2ccnc(NCCc3ccccc3)n2)c2nc(-c3ccccc3)cc(=O)n2C1 (stereo not drawn) [Example 55, 3-[6-Oxo-1-(2-phenethylamino-pyrimidin-4-yl)-8-phenyl-1,3,4,6-tetrahydro-2H-pyrimido[1,2-a]pyrimidin-3-yl]-propionic acid] | ≤ 20 |
| CCOC(=O)CCC1CN(c2ccnc(NCCc3ccccc3)n2)c2nc(-c3ccccc3)cc(=O)n2C1 (stereo not drawn) [Example 54, 3-[6-oxo-1-(2-phenethylamino-pyrimidin-4-yl)-8-phenyl-1,3,4,6-tetrahydro-2H-pyrimido[1,2-a]pyrimidin-3-yl]-propionic acid ethyl ester] | ≤ 20 |
| C[C@@H](Cc1cccc(CN)c1)Nc1nccc(N2CCCn3c2nc(-c2ccccc2)cc3=O)n1 [Example 49, 9-{2-[2-(3-Aminomethyl-phenyl)-1(S)-methyl-ethylamino]-pyrimidin-4-yl}-2-phenyl-6,7,8,9-tetrahydro-pyrimido[1,2-a]pyrimidin-4-one] | ≤ 20 |
| C[C@H](Nc1nccc(N2CCCn3c2nc(-c2cccc(N)c2)cc3=O)n1)c1ccccc1 [Example 7, 2-(3-aminophenyl)-9-[2-(1(S)-phenyl-ethylamino)-pyrimidin-4-yl]-6,7,8,9-tetrahydro-pyrimido[1,2-a]pyrimidin-4-one] | ≤ 20 |
| C[C@H](Cc1cccc(CN)c1)Nc1nccc(N2CCCn3c2nc(-c2ccccc2)cc3=O)n1 [9-{2-[2-(3-aminomethyl-phenyl)-1(R)-methyl-ethylamino]-pyrimidin-4-yl}-2-phenyl-6,7,8,9-tetrahydro-pyrimido[1,2-a]pyrimidin-4-one] | ≤ 20 |
| CC(Cc1cccc(CN)c1)Nc1nccc(N2CCCn3c2nc(-c2ccccc2)c(N)c3=O)n1 (stereo not drawn) [Example 14, 3-Amino-9-{2-[2-(3-aminomethyl-phenyl)-1-methyl-ethylamino]-pyrimidin-4-yl}-2-phenyl-6,7,8,9-tetrahydro-pyrimido[1,2-a]pyrimidin-4-one] | ≤ 20 |
| CC(Cc1cccc(CO)c1)Nc1nccc(N2CCCn3c2nc(-c2ccccc2)cc3=O)n1 (stereo not drawn) [Example 47, 9-{2-[2-(3-Hydroxymethyl-phenyl)-1-methyl-ethylamino]-pyrimidin-4-yl}-2-phenyl-6,7,8,9-tetrahydro-pyrimido[1,2-a]pyrimidin-4-one] | ≤ 20 |
| CC(N)Cc1ccc(CC(C)Nc2nccc(N3CCC(=O)N4CC=C(c5ccccc5)N=C43)n2)cc1 (stereo not drawn) [Example 64, 1-(2-{2-[4-(2-Amino-propyl)-phenyl]-1-methyl-ethylamino}-pyrimidin-4-yl)-8-phenyl-1,2,3,6-tetrahydro-pyrimido[1,2-a]pyrimidin-4-one] | ≤ 20 |
| CC(C)NCc1cccc(CC(C)Nc2nccc(N3CCCn4c3nc(-c3ccccc3)cc4=O)n2)c1 (stereo not drawn) [Example 19, 9-(2-{2-[3-(Isopropylamino-methyl)-phenyl]-1-methyl-ethylamino}-pyrimidin-4-yl) -2-phenyl-6,7,8,9-tetrahydro-pyrimido[1,2-a]pyrimidin-4-one] | ≤ 20 |

Other lines, results leading:

| IC50 [µM] | SMILES |
| --- | --- |
| ≤ 20 | C[C@H](CNc1nccc(N2CCCn3c2cc(-c2ccccc2)cc3=O)n1)c1ccccc1 [Example 79] |
| ≤ 20 | CC(Cc1cccc(CN)c1)Nc1nccc(N2CCCn3c2cc(-c2ccccc2)cc3=O)n1 (stereo not drawn) [Example 84, 1-{2-[2-(3-Aminomethyl-phenyl)-1-methyl-ethylamino]-pyrimidin-4-yl}-8-phenyl-1,2,3,4-tetrahydro-pyrido[1,2-a]pyrimidin-6-one] |
| ≤ 20 | CC(Cc1cccc(CO)c1)Nc1nccc(N2CCn3c2cc(-c2ccccc2)cc3=O)n1 (stereo not drawn) [Example 88, 1-{2-[2-(3-Hydroxymethyl-phenyl)-1-methyl-ethylamino]-pyrimidin-4-yl}-7-phenyl-2,3-dihydro-1H-imidazo[1,2-a]pyridin-5-one] |
| ≤ 20 | COc1ccc([C@H](C)Nc2nccc(N3CCCn4c3cc(-c3ccccc3)cc4=O)n2)cc1 [Example 80, 1-{2-[(1S)-(4-Methoxy-phenyl)-ethylamino]-pyrimidin-4-yl}-8-phenyl-1,2,3,4-tetrahydro-pyrido[1,2-a]pyrimidin-6-one] |
| ≤ 20 | C[C@H](Nc1nccc(N2CCCn3c2cc(-c2ccccc2)cc3=O)n1)c1cccc(Br)c1 [Example 81, 1-{2-(S)-[1-(3-Bromo-phenyl)-ethylamino]-pyrimidin-4-yl}-8-phenyl-1,2,3,4-tetrahydro-pyrido[1,2-a]pyrimidin-6-one] |
| ≤ 20 | CC(Cc1cccc(CO)c1)Nc1nccc(N2CCCn3c2cc(-c2ccccc2)cc3=O)n1 (stereo not drawn) [Example 83, 1-{2-[2-(3-Hydroxymethyl-phenyl)-1-methyl-ethylamino]-pyrimidin-4-yl}-8-phenyl-1,2,3,4-tetrahydro-pyrido[1,2-a]pyrimidin-6-one] |
| ≤ 20 | O=c1cc(-c2ccccc2)cc2n1CCCN2c1cc(NCCc2ccccc2)ncn1 [Example 85, 1-(6-Phenethylamino-pyrimidin-4-yl)-8-phenyl-1,2,3,4-tetrahydro-pyrido[1,2-a]pyrimidin-6-one] |
| ≤ 20 | O=c1cc(-c2ccccc2)cc2n1CCN2c1ccnc(NCCc2ccccc2)n1 [Example 87, 1-(2-Phenethylamino-pyrimidin-4-yl)-7-phenyl-2,3-dihydro-1H-imidazo[1,2-a]pyridin-5-one] |
| ≤ 20 | O=c1cc(-c2ccccc2)cc2n1CCCN2c1ccnc(NCCc2ccccc2)n1 [Example 74, 1-(2-Phenethylamino-pyrimidin-4-yl)-8-phenyl-1,2,3,4-tetrahydro-pyrido[1,2-a]pyrimidin-6-one] |
